Structures are written as SMILES.

The target in one test is T1, human P2X7 receptor (Homo sapiens, UniProt Q99572, R270H).
T1 construct: expressed in transfected cells
T1 sequence (Q99572 1-595 R270H): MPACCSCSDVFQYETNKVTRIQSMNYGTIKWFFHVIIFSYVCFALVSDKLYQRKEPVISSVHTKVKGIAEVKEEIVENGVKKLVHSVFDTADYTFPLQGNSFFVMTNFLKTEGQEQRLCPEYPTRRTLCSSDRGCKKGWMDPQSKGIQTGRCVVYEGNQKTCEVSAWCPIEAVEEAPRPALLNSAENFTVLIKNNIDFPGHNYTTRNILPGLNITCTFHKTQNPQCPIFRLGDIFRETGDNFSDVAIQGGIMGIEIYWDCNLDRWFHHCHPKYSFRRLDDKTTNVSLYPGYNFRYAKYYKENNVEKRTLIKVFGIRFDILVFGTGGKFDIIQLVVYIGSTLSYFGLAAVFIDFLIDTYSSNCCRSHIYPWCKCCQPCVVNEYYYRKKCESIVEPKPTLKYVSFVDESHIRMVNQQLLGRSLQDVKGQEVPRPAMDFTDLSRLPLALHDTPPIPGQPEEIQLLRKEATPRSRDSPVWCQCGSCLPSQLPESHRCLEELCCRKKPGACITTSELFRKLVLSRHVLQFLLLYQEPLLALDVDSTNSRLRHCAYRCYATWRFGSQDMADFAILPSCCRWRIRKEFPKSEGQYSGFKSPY
The experiment in a line: Evaluation of a human P2X7 receptor inhibitory activity (Yo-Pro uptake, BzATP stimulation, FLIPR TETRA). Type of test: cell-based. The conditions noted are these: antagonistic activity for the human P2X7 receptor, 1321N1 cell transfected with the human P2X7 receptor gene, Yo-Pro fluorescence. As for the experimental part: Test Example 1 Evaluation of a Human P2X7 Receptor Inhibitory Activity
Stably expressing cell line (1321N1 cell transfected with the human P2X7 receptor gene (GenBank accession number NM_002562.5 including T606C and G952A SNP)) was used. The cells were seeded in a 384-well microtiter plate at a concentration of 8000 cells/well and cultured in the medium (10% fetal bovine serum, 25 mM HEPES, 1% penicillin and streptomycin in DMEM) for one day at 37° C. under 5% carbon dioxide atmosphere. After replacing with 20 μL of the HBSS buffer (20 mM HEPES. 55.6 mM D-glucose, 1×HBSS(−), pH 7.4-7.5), 15 μL of 17.3 μM Yo-Pro solution in the HBSS buffer was added. The plate was placed in high-throughput cellular screening system FLIPR TETRA (Molecullar Devices, LLC.) and 15 μL of 130 μM BzATP solution in the HBSS buffer was added. Measurement of fluorescence intensity by FLIPR TETRA was started. After eight minutes, 15 μL of DMSO solutions containing different concentrations of the compound of the present invention as prepared by dilution with the HBSS buffer were dispensed to each well through the built-in automatic dispenser, and the measurement of fluorescence intensity was continued for 20 minutes. The maximum fluorescence intensity without the compound of the present invention is calculated as 0% inhibition and the maximum fluorescence intensity when the reference compound was added is calculated as 100% inhibition. Changing values of fluorescence intensity by the compound of the present invention were calculated by difference between maximum and minimum fluorescence intensity for 20 minutes. Inhibition ratios (%) were calculated from the following equation:
[formula] IC50 was calculated using logistic approximation.
Usually IC50 stands for the concentration that gives 50% inhibition. Read a low IC50 as inhibition by little substance. `O=c1cc(-c2cccc(C(F)(F)F)c2Cl)n(Cc2ccccc2F)cc1Br` [Compound I-001] yielded an IC50 of 67 nM.

`COc1cn(Cc2ccccc2)c(-c2cccc(C(F)(F)F)c2Cl)cc1=O` [Compound I-015] returned an IC50 of 44 nM.

In turn, `O=c1ccn(Cc2ccc(F)cc2)c(-c2cccc(Cl)c2Cl)c1` [Compound I-020] displayed an IC50 of 810 nM.

Compound `O=c1ccn(Cc2cccc3ccsc23)c(-c2cccc(C(F)(F)F)c2Cl)c1` [Compound I-048] gave an IC50 of 110 nM.

Staying with this test, now noted: antagonistic activity for the human P2X7 receptor, 1321N1 cell transfected with the human P2X7 receptor gene, Yo-Pro fluorescence, class symbols.
For `N#Cc1cn(Cc2ccccc2F)c(-c2cccc(C(F)(F)F)c2Cl)cc1=O` [Compound I-002], the IC50 was below 50 nM.

For `N#Cc1cccc(Cn2cc(Br)c(=O)cc2-c2cccc(C(F)(F)F)c2Cl)c1` [Compound I-003], the IC50 fell in the range of 100 to 500 nM.

Regarding `N#Cc1cccc(Cn2cc(N3CCCC3)c(=O)cc2-c2cccc(C(F)(F)F)c2Cl)c1` [Compound I-004], the IC50 lay within 500 to 1000 nM.

In the case of `CC(=O)c1cn(Cc2cccc(C#N)c2)c(-c2cccc(C(F)(F)F)c2Cl)cc1=O` [Compound I-005], the IC50 was 500 to 1000 nM.

For `N#Cc1cccc(Cn2cc(N)c(=O)cc2-c2cccc(C(F)(F)F)c2Cl)c1` [Compound I-006], the IC50 lay in the range of 500 to 1000 nM.

As to `COc1cn(Cc2cccc(C#N)c2)c(-c2cccc(C(F)(F)F)c2Cl)cc1=O` [Compound I-007], the IC50 is 100 to 500 nM.

As for `O=c1cc(-c2cccc(C(F)(F)F)c2Cl)n(Cc2ccccc2)cc1Br` [Compound I-008], the IC50 fell in the range of 100 to 500 nM.

`COc1cccc(Cn2cc(Br)c(=O)cc2-c2cccc(C(F)(F)F)c2Cl)c1` [Compound I-009] registered a half-maximal inhibitory concentration (IC50) of 100 to 500 nM.

For the compound `O=c1cc(-c2cccc(C(F)(F)F)c2Cl)n(Cc2cccc(F)c2)cc1Br` [Compound I-010], the IC50 fell in the range of 100 to 500 nM.

As to `O=c1cc(-c2cccc(C(F)(F)F)c2Cl)n(Cc2cccc(Cl)c2)cc1Br` [Compound I-011], the IC50 lay within 100 to 500 nM.

Regarding `CC(C)NC(=O)Nc1cccc(Cn2cc(Br)c(=O)cc2-c2cccc(C(F)(F)F)c2Cl)c1` [Compound I-012], the IC50 was 500 to 1000 nM.

Turning to `N#Cc1cccc(Cn2cc(Cl)c(=O)cc2-c2cccc(C(F)(F)F)c2Cl)c1` [Compound I-013], the IC50 lay within 100 to 500 nM.

`CC(=O)c1cn(Cc2ccccc2)c(-c2cccc(C(F)(F)F)c2Cl)cc1=O` [Compound I-014] showed an IC50 of 100 to 500 nM.

On to `Cc1ccccc1Cn1ccc(=O)cc1-c1cccc(Cl)c1Cl` [Compound I-016], for which the IC50 is 100 to 500 nM.

Regarding `O=c1ccn(Cc2ccc(F)cc2)c(-c2cccc(C(F)(F)F)c2Cl)c1` [Compound I-017], the IC50 was 500 to 1000 nM.

As to `Cc1ccccc1Cn1ccc(=O)cc1-c1cccc(C(F)(F)F)c1Cl` [Compound I-018], the IC50 was in the range of 50 to 100 nM.

On to `O=c1ccn(Cc2ccccc2)c(-c2cccc(C(F)(F)F)c2Cl)c1` [Compound I-019], for which the IC50 is 100 to 500 nM.

`O=c1ccn(Cc2ccccc2)c(-c2cccc(Cl)c2Cl)c1` [Compound I-021] came in with an IC50 of 500 to 1000 nM.

For the compound `O=c1ccn(Cc2ccccc2F)c(-c2cccc(C(F)(F)F)c2Cl)c1` [Compound I-022], the IC50 was 100 to 500 nM.

`N#Cc1ccccc1Cn1ccc(=O)cc1-c1cccc(C(F)(F)F)c1Cl` [Compound I-023]: the 50% inhibitory concentration (IC50) lay within 500 to 1000 nM.

With `N#Cc1cccc(Cn2ccc(=O)cc2-c2cccc(C(F)(F)F)c2Cl)c1` [Compound I-024], the half-inhibitory concentration (IC50) is 500 to 1000 nM.

As to `N#Cc1ccc(Cn2ccc(=O)cc2-c2cccc(C(F)(F)F)c2Cl)cc1` [Compound I-025], the IC50 fell in the range of 1000 to 10000 nM.

Regarding `O=c1ccn(Cc2ccccc2S(=O)(=O)N2CCOCC2)c(-c2cccc(C(F)(F)F)c2Cl)c1` [Compound I-026], the IC50 is 1000 to 10000 nM.

For the compound `O=c1ccn(Cc2cccc(F)c2)c(-c2cccc(C(F)(F)F)c2Cl)c1` [Compound I-027], the IC50 is 500 to 1000 nM.

In turn, `Cc1cccc(Cn2ccc(=O)cc2-c2cccc(C(F)(F)F)c2Cl)c1` [Compound I-028] returned an IC50 of 100 to 500 nM.

Compound `Cc1ccc(Cn2ccc(=O)cc2-c2cccc(C(F)(F)F)c2Cl)cc1` [Compound I-029] came in with an IC50 of 1000 to 10000 nM.

As to `O=c1ccn(Cc2ccccc2OC(F)(F)F)c(-c2cccc(C(F)(F)F)c2Cl)c1` [Compound I-030], the IC50 was in the range of 500 to 1000 nM.

As for `O=c1ccn(Cc2cccc(OC(F)(F)F)c2)c(-c2cccc(C(F)(F)F)c2Cl)c1` [Compound I-031], the half-maximal inhibitory concentration (IC50) was in the range of 1000 to 10000 nM.

Consider `COc1cccc(Cn2ccc(=O)cc2-c2cccc(C(F)(F)F)c2Cl)n1` [Compound I-032], for which the IC50 lay within 500 to 1000 nM.

With `O=c1ccn(Cc2ccccc2C(F)(F)F)c(-c2cccc(C(F)(F)F)c2Cl)c1` [Compound I-033], the IC50 lay in the range of 100 to 500 nM.

On to `O=c1ccn(Cc2cccc(=O)[nH]2)c(-c2cccc(C(F)(F)F)c2Cl)c1` [Compound I-034], for which the IC50 is 500 to 1000 nM.

`O=c1ccn(Cc2cccc(CO)c2)c(-c2cccc(C(F)(F)F)c2Cl)c1` [Compound I-035] yielded an IC50 of 100 to 500 nM.

With `O=c1ccn(Cc2cccc(Oc3ccccc3)c2)c(-c2cccc(C(F)(F)F)c2Cl)c1` [Compound I-036], the half-maximal inhibitory concentration (IC50) is 500 to 1000 nM.

With `CC(C)NC(=O)Nc1cccc(Cn2ccc(=O)cc2-c2cccc(C(F)(F)F)c2Cl)c1` [Compound I-037], the IC50 lay within 100 to 500 nM.

In the case of `COc1ccc(-c2noc(Cn3ccc(=O)cc3-c3cccc(C(F)(F)F)c3Cl)n2)cc1` [Compound I-038], the IC50 was in the range of 1000 to 10000 nM.

Compound `O=c1ccn(Cc2ccccc2-c2ccccc2)c(-c2cccc(C(F)(F)F)c2Cl)c1` [Compound I-039] came in with an IC50 of 1000 to 10000 nM.

Compound `COc1ccc(Cn2ccc(=O)cc2-c2cccc(C(F)(F)F)c2Cl)cc1` [Compound I-040] registered an IC50 of 1000 to 10000 nM.

`O=c1ccn(Cc2ccc(Cl)cc2)c(-c2cccc(C(F)(F)F)c2Cl)c1` [Compound I-041]: the IC50 was 1000 to 10000 nM.

For the compound `O=c1ccn(Cc2nc3ccccc3s2)c(-c2cccc(C(F)(F)F)c2Cl)c1` [Compound I-042], the 50% inhibitory concentration (IC50) lay within 1000 to 10000 nM.

In the case of `O=c1ccn(Cc2ccc(-c3ccccc3)cc2)c(-c2cccc(C(F)(F)F)c2Cl)c1` [Compound I-043], the IC50 is 1000 to 10000 nM.

`O=c1ccn(Cc2cccc3cccnc23)c(-c2cccc(C(F)(F)F)c2Cl)c1` [Compound I-044] displayed an IC50 of 500 to 1000 nM.

`O=c1ccn(Cc2ccccc2-c2cccs2)c(-c2cccc(C(F)(F)F)c2Cl)c1` [Compound I-045]: the IC50 is 1000 to 10000 nM.

Compound `O=c1ccn(Cc2cccc3c2OCCCO3)c(-c2cccc(C(F)(F)F)c2Cl)c1` [Compound I-046] gave a half-inhibitory concentration (IC50) of 100 to 500 nM.

For `O=c1ccn(Cc2cccc(-c3cccs3)c2)c(-c2cccc(C(F)(F)F)c2Cl)c1` [Compound I-047], the IC50 was 1000 to 10000 nM.

Take `O=c1ccn(Cc2ccccc2OCc2ccccc2)c(-c2cccc(C(F)(F)F)c2Cl)c1` [Compound I-049]: the IC50 is 100 to 500 nM.

Compound `O=c1ccn(Cc2cccc(C(F)(F)F)c2)c(-c2cccc(C(F)(F)F)c2Cl)c1` [Compound I-050] came in with a half-maximal inhibitory concentration (IC50) of 1000 to 10000 nM.

Turning to `O=c1ccn(Cc2ccc3ccccc3c2)c(-c2cccc(C(F)(F)F)c2Cl)c1` [Compound I-051], the IC50 fell in the range of 500 to 1000 nM.

Consider `O=c1ccn(Cc2ccc(C(F)(F)F)cc2)c(-c2cccc(C(F)(F)F)c2Cl)c1` [Compound I-052], for which the half-inhibitory concentration (IC50) is 1000 to 10000 nM.

For the compound `O=c1ccn(Cc2cccnc2)c(-c2cccc(C(F)(F)F)c2Cl)c1` [Compound I-053], the IC50 lay within 500 to 1000 nM.

Take `O=c1ccn(Cc2c(F)cccc2F)c(-c2cccc(C(F)(F)F)c2Cl)c1` [Compound I-054]: the IC50 fell in the range of 100 to 500 nM.

Regarding `O=c1ccn(Cc2cccc(Cl)c2)c(-c2cccc(C(F)(F)F)c2Cl)c1` [Compound I-055], the IC50 is 100 to 500 nM.

Take `O=c1ccn(Cc2ccccc2CS(=O)(=O)c2ccccc2)c(-c2cccc(C(F)(F)F)c2Cl)c1` [Compound I-056]: the IC50 was in the range of 1000 to 10000 nM.

Compound `COc1cccc(Cn2ccc(=O)cc2-c2cccc(C(F)(F)F)c2Cl)c1` [Compound I-057] yielded an IC50 of 100 to 500 nM.

With `O=c1ccn(Cc2ccccn2)c(-c2cccc(C(F)(F)F)c2Cl)c1` [Compound I-058], the IC50 lay within 500 to 1000 nM.
